Consider one molecule from patent publication US6855512B2, “Methods for identifying inhibitors of cytochrome P450RAI” (Allergan, Inc., priority 2000, dated 2005).

The test addresses T1, P450RAI-1 (Homo sapiens, UniProt O43174).
T1 construct: expressed in transfected cells; host or cells: HeLa (stably transfected, hygromycin selection)
T1 sequence (O43174 1-497): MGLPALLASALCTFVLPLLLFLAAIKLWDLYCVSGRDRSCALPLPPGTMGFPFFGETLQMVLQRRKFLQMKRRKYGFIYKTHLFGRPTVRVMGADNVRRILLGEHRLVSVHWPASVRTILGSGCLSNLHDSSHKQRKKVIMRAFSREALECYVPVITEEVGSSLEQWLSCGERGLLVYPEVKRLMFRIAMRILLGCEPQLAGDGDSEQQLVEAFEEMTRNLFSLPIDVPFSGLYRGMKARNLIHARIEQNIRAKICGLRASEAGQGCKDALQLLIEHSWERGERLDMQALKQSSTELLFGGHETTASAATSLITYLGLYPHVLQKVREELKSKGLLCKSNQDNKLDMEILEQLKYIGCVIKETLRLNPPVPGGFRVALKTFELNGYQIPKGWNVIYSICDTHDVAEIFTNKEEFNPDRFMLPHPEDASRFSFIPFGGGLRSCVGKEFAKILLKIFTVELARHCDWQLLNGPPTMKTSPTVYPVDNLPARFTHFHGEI
The experiment in a line: P450RAI-1 cell-based inhibitor assay (intact HeLa). The note with it: read-out: P450RAI INHIBITION DATA INTACT HELA IC50. The protocol:
P450RAI-1 Cell-Based Inhibitor Assay:
P450RAI-1 stably transfected HeLa cells are maintained in […] tissue culture dishes in Modified Eagle's Medium (MEM) containing 10% Fetal Bovine Serum (FBS) and 100 μg/ml hygromycin. Exponentially growing cells are harvested by incubating in trypsin. Cells are then washed with 1× Phosphate Buffered Saline (PBS) and plated in a 48-well plate at 5×10^5 cells in 0.2 ml MEM medium containing 10% FBS and 0.05 μCi [^3H]-RA in the presence or absence of increasing concentrations of the test compounds. The compounds are diluted in 100% DMSO and then added in triplicate wells at either 10, 1 or 0.1 μM final concentration. As a positive control for RA metabolism inhibition, cells are also incubated with ketoconazole at 100, 10 and 1 μM. Cell are incubated for 3 hours at 37° C. […] The water soluble radioactivity is quantified using β-scintillation counter. IC50 values represent the concentration of inhibitor required to inhibit all-trans-RA metabolism by 50 percent and are derived manually from log-transformed data.

For orientation: IC50 means the midpoint of a concentration-inhibition curve. Consider `CC1(C)CC(C)(C)c2cc(C#Cc3ccc(C(=O)O)cc3)ccc2O1` [Compound 201], for which the IC50 was 520 nM.
